Laboratory results published in patent US12428648B2, “Compositions comprising peptides that block transmission of orthotospoviruses” (priority 2019, dated 2025).
No end group written: not given here.

Columns and labels:
[1] = target: α5β1 (Homo sapiens, UniProt P05556+P08648); settings: Hersel et al., 2003; cited from earlier work
[2] = target: αvβ3 (Homo sapiens, UniProt P05106+P06756); settings: Hersel et al., 2003; cited from earlier work
[3] = Dissolution of the synthesized peptides; format: physicochemical; settings: molecular biology grade water; 25% acetic acid for A229

Chain of α5β1 (P08648 42-1049): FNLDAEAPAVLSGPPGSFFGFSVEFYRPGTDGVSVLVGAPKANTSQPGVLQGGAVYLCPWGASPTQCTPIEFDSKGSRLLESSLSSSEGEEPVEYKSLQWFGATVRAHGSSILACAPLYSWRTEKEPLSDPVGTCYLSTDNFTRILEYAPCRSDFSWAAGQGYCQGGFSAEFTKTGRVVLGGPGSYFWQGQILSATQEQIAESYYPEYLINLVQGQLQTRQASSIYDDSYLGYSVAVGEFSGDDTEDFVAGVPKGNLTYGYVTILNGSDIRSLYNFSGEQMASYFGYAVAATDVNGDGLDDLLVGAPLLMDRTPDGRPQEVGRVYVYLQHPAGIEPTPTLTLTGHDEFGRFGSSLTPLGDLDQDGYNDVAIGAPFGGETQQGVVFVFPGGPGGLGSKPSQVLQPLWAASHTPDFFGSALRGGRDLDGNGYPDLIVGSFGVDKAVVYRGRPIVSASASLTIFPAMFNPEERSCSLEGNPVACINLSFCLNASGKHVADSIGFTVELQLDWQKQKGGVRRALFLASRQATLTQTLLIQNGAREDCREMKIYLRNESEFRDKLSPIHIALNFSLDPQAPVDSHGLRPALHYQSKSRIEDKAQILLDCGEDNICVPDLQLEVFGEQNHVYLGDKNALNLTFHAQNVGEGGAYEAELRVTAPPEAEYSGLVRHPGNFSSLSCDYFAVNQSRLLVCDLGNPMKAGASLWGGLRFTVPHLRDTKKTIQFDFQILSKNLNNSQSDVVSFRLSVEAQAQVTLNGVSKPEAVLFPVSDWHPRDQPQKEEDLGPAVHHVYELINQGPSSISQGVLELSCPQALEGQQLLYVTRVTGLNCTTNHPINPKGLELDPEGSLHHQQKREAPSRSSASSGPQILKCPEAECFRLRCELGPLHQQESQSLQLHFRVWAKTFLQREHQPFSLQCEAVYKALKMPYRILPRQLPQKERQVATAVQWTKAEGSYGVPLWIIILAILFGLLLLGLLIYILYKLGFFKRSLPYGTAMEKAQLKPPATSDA
Chain of α5β1 (P05556 21-798): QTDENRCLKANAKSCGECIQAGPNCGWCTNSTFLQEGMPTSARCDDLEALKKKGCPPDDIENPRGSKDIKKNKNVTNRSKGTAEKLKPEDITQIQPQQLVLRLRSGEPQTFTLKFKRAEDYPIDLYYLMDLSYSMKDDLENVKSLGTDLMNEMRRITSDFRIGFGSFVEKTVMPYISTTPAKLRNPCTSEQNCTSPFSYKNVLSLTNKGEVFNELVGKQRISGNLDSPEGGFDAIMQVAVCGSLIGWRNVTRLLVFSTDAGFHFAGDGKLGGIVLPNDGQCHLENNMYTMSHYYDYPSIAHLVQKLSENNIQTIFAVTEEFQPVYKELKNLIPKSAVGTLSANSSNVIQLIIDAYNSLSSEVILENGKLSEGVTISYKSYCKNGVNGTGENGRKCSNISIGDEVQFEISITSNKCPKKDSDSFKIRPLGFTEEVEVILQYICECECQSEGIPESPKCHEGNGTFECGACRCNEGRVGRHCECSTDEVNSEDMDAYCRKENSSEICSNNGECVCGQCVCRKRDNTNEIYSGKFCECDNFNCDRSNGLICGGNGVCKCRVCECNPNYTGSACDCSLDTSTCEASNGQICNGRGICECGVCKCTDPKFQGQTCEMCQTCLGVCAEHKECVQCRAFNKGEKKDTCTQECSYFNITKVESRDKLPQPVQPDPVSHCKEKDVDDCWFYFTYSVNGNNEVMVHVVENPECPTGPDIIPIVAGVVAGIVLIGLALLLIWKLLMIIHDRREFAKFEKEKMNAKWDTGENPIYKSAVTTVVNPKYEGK
Chain of αvβ3 (P06756 31-1048): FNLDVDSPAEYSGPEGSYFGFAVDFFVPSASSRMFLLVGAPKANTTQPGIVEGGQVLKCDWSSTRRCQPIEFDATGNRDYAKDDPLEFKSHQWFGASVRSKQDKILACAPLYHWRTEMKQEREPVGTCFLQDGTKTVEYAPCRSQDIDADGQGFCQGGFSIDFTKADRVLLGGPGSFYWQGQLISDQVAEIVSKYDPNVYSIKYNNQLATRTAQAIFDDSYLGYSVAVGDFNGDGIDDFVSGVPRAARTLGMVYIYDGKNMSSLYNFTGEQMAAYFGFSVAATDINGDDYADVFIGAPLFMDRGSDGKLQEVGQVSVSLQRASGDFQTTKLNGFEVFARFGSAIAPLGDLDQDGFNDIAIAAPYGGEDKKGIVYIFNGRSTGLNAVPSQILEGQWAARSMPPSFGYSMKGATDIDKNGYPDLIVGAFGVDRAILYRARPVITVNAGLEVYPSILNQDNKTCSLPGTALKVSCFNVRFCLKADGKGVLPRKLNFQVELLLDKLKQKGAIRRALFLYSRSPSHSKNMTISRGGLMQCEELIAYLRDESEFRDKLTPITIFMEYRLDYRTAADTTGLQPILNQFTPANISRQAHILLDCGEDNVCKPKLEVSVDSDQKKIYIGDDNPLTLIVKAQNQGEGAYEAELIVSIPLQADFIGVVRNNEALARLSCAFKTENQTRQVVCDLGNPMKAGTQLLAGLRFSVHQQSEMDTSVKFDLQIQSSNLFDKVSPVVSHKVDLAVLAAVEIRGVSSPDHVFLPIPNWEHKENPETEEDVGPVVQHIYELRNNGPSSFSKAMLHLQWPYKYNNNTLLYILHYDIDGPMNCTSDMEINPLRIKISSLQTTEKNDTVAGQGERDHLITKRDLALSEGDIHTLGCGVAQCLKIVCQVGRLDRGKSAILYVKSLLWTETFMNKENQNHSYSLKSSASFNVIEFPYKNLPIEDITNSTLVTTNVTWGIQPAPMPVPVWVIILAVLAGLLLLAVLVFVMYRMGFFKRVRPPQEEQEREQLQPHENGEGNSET
Chain of αvβ3 (P05106 27-788): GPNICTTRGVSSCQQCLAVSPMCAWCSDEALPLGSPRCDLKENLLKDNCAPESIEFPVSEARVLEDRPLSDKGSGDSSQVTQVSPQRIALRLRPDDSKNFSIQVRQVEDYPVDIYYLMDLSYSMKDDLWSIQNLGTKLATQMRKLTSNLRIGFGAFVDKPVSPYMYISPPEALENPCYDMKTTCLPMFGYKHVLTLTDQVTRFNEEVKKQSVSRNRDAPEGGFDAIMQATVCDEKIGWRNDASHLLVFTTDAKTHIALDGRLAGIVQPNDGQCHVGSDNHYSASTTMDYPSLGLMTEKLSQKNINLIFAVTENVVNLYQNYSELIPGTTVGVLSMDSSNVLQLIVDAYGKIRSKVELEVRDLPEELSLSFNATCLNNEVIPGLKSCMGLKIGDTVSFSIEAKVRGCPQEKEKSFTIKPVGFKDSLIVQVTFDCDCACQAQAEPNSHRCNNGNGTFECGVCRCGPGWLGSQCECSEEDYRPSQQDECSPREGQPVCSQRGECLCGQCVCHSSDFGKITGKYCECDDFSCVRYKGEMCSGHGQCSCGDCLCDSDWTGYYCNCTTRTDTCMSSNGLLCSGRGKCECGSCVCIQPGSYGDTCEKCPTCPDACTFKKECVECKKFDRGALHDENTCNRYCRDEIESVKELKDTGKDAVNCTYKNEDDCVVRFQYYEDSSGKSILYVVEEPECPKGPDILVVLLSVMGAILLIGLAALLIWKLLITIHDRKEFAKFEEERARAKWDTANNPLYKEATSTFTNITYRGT

| Substance | solubility of the peptide, in words [3] | other results |
| --- | --- | --- |
| RGDSPASSKP |  | integrin binding preference, in words [1]: bind preferentially to α5β1 |
| GPenGRGDSPCA |  | integrin selectivity, in words [2]: selective for αvβ3 |
| RLTGECNITKVSLTN [N229] | dissolved in molecular biology grade water |  |
| NASIRGDHEVSQE [RGD] | dissolved in molecular biology grade water |  |
| GRGDSP |  | integrin binding preference, in words [1]: bind preferentially to α5β1 |
| NASIAADHEVSQE [AAD] | insoluble in H2O |  |
| NASIAGDHEVSQE [AGD] | dissolved in molecular biology grade water |  |
| NASIRGAHEVSQE [RGA] | dissolved in molecular biology grade water |  |
| NASIAGAHEVSQE [AGA] | dissolved in molecular biology grade water |  |
| NASIAAAHEVSQE [AAA] | dissolved in molecular biology grade water |  |
| NASIRAAHEVSQE [RAA] | dissolved in molecular biology grade water |  |
| RLTGECAITKVSLTN [A229] | did not dissolve in either water or 25% acetic acid |  |
| NASIRADHEVSQE [RAD] | insoluble in H2O |  |
